Results: patent US20260315563A1, “A NOVEL MENTHOL-EUCALYPTUS OIL ANTITUSSIVE SPRAY AND USE THEREOF” (SINO-SHINE BIOPHARMACEUTICAL CO.,LTD, priority 2023, published 2026)
“And” between values parts separate entries of the source, which are not always exact repeats. Identical values can stand only once. “Also recorded” adds a separate entry of the source. Counter-ions that a name gives are not always drawn.

Columns and labels:
TRPV1 = details: in vivo; cited from earlier work
[1] = tested on: sodium citrate-evoked coughs; assay: Animal Experiment 1: antitussive effect in sodium citrate (citric acid)-evoked cough, guinea pigs; type: in vivo; details: for Cough Frequency / Cough Latency / Inhibition Rate of Cough: nebulization 10 min, 0.4 M citric acid; for Inhibition Rate of Cough: original model
Procedure: 100 guinea pigs, 250 g to 300 g each, half-male and half-female, were purchased from Beijing Vital River Experimental Animal Technology Co., Ltd., referred to Certificate Numbers 110011220104932418, 110011220104932542. The animals were reared at the general laboratory facility with 40% to 60% of humidity, and provided with a cycle of light: 12 h in dark and 12 h in light. The animals could freely access to water and food. All operations and experimental procedures complied with the “Regulations on Animal Experiment Management.”
At the initial screening step, each guinea pig was individually placed in a glass bell jar to allow adaptation for 1 min and then administered with a compressed aerosol of 0.4 M citric acid solution (instead of physiological saline for the blank control group) for 10 min. The frequency of cough was recorded during administration of the aerosol. The guinea pigs with a cough frequency of 10-30 were retained for the formal experiments later. The qualified guinea pigs were randomly divided into the corresponding groups (not fewer than 10 in each group) and were subjected to test the inhalation of the nebulized solvent, menthol, eucalyptus oil, or a combination of menthol and eucalyptus oil for 10 min. After an interval of 10 min post-inhalation of the test drug, 0.4 M citric acid solution was nebulized and given for inhalation, and the cough frequency was recorded by video from the beginning to the end of the administration of citric acid aerosol. The latency of cough is defined as the period from the inhalation of nebulized citric acid to the appearance of the first cough. The videos were recorded during the period of cough provocation in the experiment.
• (1) 0.4 M sodium citrate: Sodium citrate was accurately weighed, added into an appropriate volume of pure water, completely dissolved by sonication, and finally diluted to 0.4 M for use later. • (2) Codeine: Codeine was accurately weighed, grounded sufficiently in a mortar, transferred into an appropriate amount of physiological saline, and dissolved by sonication. • (3) Preparations of testing drugs: Initially, an oil phase was prepared by dissolving 2 g of menthol in 10 mL of olive oil (menthol group); or well mixing 3.6 mL of eucalyptus oil with 6.4 mL of olive oil (eucalyptus oil group); or adding 2 g of menthol and 3.6 mL of eucalyptus oil/0.6 g of menthol and 3.6 mL of eucalyptus oil/2 g of menthol and 1.2 mL of eucalyptus oil respectively in a corresponding volume of olive oil to make a final 10 mL solution (menthol+eucalyptus oil groups). Afterwards, 5 g of soybean lecithin (cut into small pieces beforehand) was added to 10 mL of olive oil (control group) or each of the drug groups above and dissolved by slowly stirring to form a uniform oil phase at 42° C. in a water bath. Further, double distilled water was slowly added to each group in oil phase on a magnetic stirrer and fully emulsified by sufficiently stirring to mix the oil phase with water. A final emulsion was prepared in a volume of 100 mL and could be further diluted to make a working preparation with the specific concentration of drug (or drugs).
All experimental data were expressed as mean±SEM, and the data-processing software SSPS16.0 was used to conduct the analysis of variance and inter-group t-test. The conclusions were made by comprehensively analyzing all data.

asthma = details: clinical trials for asthma; cited from earlier work
[2] = tested on: inflammatory factors, such as leukotriene B4 (LTB4), prostaglandin (PGE2), and a variety of cytokines; details: cited from earlier work
coughs = details: in vivo; cited from earlier work
[3] = tested on: capsaicin-guinea pig model; details: cited from earlier work
[4] = tested on: cough induction using LPS and citric acid; assay: Animal Experiment 2: antitussive effect in LPS-citric acid cough model (inflammatory cough), guinea pigs; type: in vivo; details: for Cough Frequency / Cough Frequency Suppression Rate, Actual Value / Cough Latency: LPS + 0.2 M citric acid
Procedure: 160 guinea pigs, 250 g to 300 g each, half-male and half-female, certificate number 20220908Cdzz0412999409, were purchased from Xinjian Rabbit Farm, Dashiju Town, Xinchang County. The animals were reared at the general laboratory facility with 40% to 60% of humidity, and provided with a cycle of 12 h in the dark and 12 h in light. The animals could freely access to water and food. All operations and experimental procedures complied with the “Regulations on Animal Experiment Management.” • Production license: SCXK (Zhejiang) 2020-0005 • Application license: SCXK (Zhejiang) 2021-0019
Currently, there are barely reports on the models of inflammatory coughs in China and other countries. To closely mimic the occurrence of actual coughs in people suffering from acute respiratory infection, a novel inflammatory cough model was explored ahead of the projected experiments. This novel model was based on the citric acid-induced cough model, but the animals were subject to a LPS pretreatment before beginning with the cough provocation of citric acid.
After 5 days of adaptive feeding, the animal was individually placed in a glass bell jar to allow adaptation for 1 min, and then administrated with the compressed aerosol of 0.4 M citric acid solution (instead of physiological saline for the blank control group) for 10 min. The frequency of cough was recorded during administration of the citric acid aerosol. The guinea pigs with a cough frequency of 10-30 were retained for the formal experiments later. The qualified guinea pigs were randomly divided into the corresponding groups (not fewer than 8 in each group) and were subjected to test the inhalation of the nebulized solvent, menthol, eucalyptus oil, or a combination of menthol and eucalyptus oil for 10 min. After an interval of 15 min post inhalation of the test drug, the animals were administered with the aerosol of 1 mg/mL LPS. 4 hours post the LPS nebulization, the animals were subjected to the second inhalation of the nebulized solvent, menthol, eucalyptus oil, or the combination of menthol and eucalyptus oil for 10 min. Fifteen minutes later, the aerosol of 0.2 M citric acid was administered for cough induction, and the process was recorded by video during the inhalation of citric acid. The duration from the inhalation of the nebulized citric acid to the emergence of first cough was designated as the latency. The control group used solvent for nebulization and cough evoking.
• (1) 0.4 M citric acid: Citric acid was accurately weighed, added into an appropriate volume of pure water to make a final concentration of 0.4 mol/L, and completely dissolved by sonication. • (2) 0.2 M citric acid: Citric acid was accurately weighed, added into an appropriate volume of pure water to make a final concentration of 0.2 mol/L, and completely dissolved by sonication. • (3) Codeine: Codeine was accurately weighed, placed in a mortar and grounded repeatedly, added into an appropriate amount of physiological saline and completely dissolved by sonication. • (4) LPS preparation: LPS was accurately weighed, added into an appropriate amount of physiological saline to make a final concentration of 1 mg/mL, and completely dissolved by vortexing. • (5) Preparations of testing drugs: Initially, 4 g of menthol was dissolved in 10 mL of olive oil (menthol group), or 0.45 mL of eucalyptus oil was sufficiently mixed with 9.55 mL of olive oil (eucalyptus oil group). Afterwards, 5 g of soybean lecithin (previously cut into small pieces) was added to 10 mL of olive oil (control group) or each of the drug groups above, and dissolved by slowly stirring to form a uniform oil phase at 42° C. in a water bath. Further, double distilled water was slowly added to each group in oil phase on a magnetic stirrer and fully emulsified by sufficiently stirring to mix the oil phase with water. […]

TRPM8 = details: cooling effect; membrane potential depolarization and Ca2+ influx; cited from earlier work
[5] = 2% menthol, 3.6% eucalyptus oil, combinations, or 30 mg/mL codeine phosphate, P<0.01

SMILES: COc1cc(CNC(=O)CCCC/C=C/C(C)C)ccc1O [Capsaicin]
- Cough induction by TRPV1 agonists (in words) (TRPV1): evoke coughs in humans and guinea pigs

SMILES: O=C(O)CC(O)(CC(=O)O)C(=O)O [Sodium citrate]
- Cough induction (in words) ([1]; 0.4 M sodium citrate, P<0.01 vs control): significantly evoke coughing in guinea pigs
- Cough induction by TRPV1 agonists (in words) (TRPV1): evoke coughs in humans and guinea pigs

SMILES: CC12CCC(CC1)C(C)(C)O2 [Eucalyptol, 1,8-Cineol]
- Replacement of glucocorticoids in asthma (in words) (asthma): partially replace the use of glucocorticoids
- Anti-inflammatory effect (in words) [2]: effective anti-inflammatory agent
- Antitussive effect in human clinical trials (in words) (coughs): proven to have anti-inflammatory and antitussive effects in clinical trials; also recorded: confirmed in clinical trials

SMILES: CC(C)[C@@H]1CC[C@@H](C)C[C@H]1O [Menthol, L-1-methyl-4-isopropylcyclohexan-3-ol]
- Effect on frequency of coughs / antitussive effect (in words) [1, 5]: reduced the frequency of coughs; also recorded: reduced the cough frequency; also recorded: show antitussive effects
- Effect on latency of coughs (in words) [1, 5]: significantly increased the cough latency
- Cough Frequency ([1]; 2% menthol): 11.58 ± 1.72 times
- Cough Latency ([1]; 2% menthol): 155.50 ± 20.43 s
- Inhibition Rate of Cough ([1]; 2% menthol): 37.39 ± 9.30%
- Inhibition Rate of Cough ([1]; 2% menthol, listed as menthol): 37.39% and 37.39 ± 9.30 %
- Antitussive effect on capsaicin-evoked coughs (in words) [3]: effectively suppress coughs; also recorded: significantly suppressed
- Antitussive effect in human clinical trials (in words) (coughs): well verified in human clinical trials
- Cough Frequency ([4]; 0.06% menthol): 16.50 ± 1.78
- Cough Frequency Suppression Rate, Actual Value ([4]; 0.06% menthol): 12.65 ± 9.44%
- Cough Latency ([4]; 0.06% menthol): 104.88 ± 10.85 s
- Cough Frequency ([4]; 0.25% menthol): 14.88 ± 1.90
- Cough Frequency Suppression Rate, Actual Value ([4]; 0.25% menthol): 21.25 ± 10.08%
- Cough Latency ([4]; 0.25% menthol): 88.75 ± 15.96 s
- Statistical significance of cough suppression (in words) ([4]; 1.0% and 4% menthol, 0.15% and 0.45% eucalyptus oil, P<0.01-0.05): statistical significance; also recorded: statistically attained the significance in cough suppression
- Cough Frequency ([4]; 1.0% menthol): 13.13 ± 0.55
- Cough Frequency Suppression Rate, Actual Value ([4]; 1.0% menthol): 28.53 ± 3.00%
- Cough Latency ([4]; 1.0% menthol): 116.38 ± 11.30 s
- Cough Frequency Suppression Rate, Actual Value ([4]; 1.0% menthol, listed as menthol): 28.53 ± 3.00 %
- Cough Frequency ([4]; 4.0% menthol): 11.38 ± 0.82
- Cough Frequency Suppression Rate, Actual Value ([4]; 4.0% menthol): 39.78 ± 4.35%
- Cough Latency ([4]; 4.0% menthol): 128.13 ± 13.84 s
- Cough Frequency Suppression Rate, Actual Value ([4]; 4.0% menthol, listed as menthol): 39.78% and 39.78 ± 4.35 %
- Effect on frequency of coughs (in words) ([4]; menthol 0.06-4%, eucalyptus oil 0.05-0.45%, combinations 0.06-1.0% + 0.05-0.15%, codeine 30 mg/mL): reduce the frequency of coughs in a dose-dependent manner
- Efficacy on inflammatory coughs compared with original model (in words) ([4]; novel LPS-citric acid model vs original citric acid model): reduced; also recorded: better activities on non-inflammatory coughs; also recorded: declined
- Activation of TRPM8 (in words) (TRPM8): Activation of TRPM8

SMILES: O=C(O)CC(O)(CC(=O)O)C(=O)O [Citric acid]
- Cough induction (in words) ([4]; 0.2 M citric acid after LPS, P<0.01 vs blank control): significantly induce coughs

SMILES: COc1ccc2c3c1O[C@H]1[C@@H](O)C=C[C@H]4[C@@H](C2)N(C)CC[C@@]341 [Codeine phosphate]
- Cough Frequency ([1]; 30 mg/mL codeine phosphate): 7.90 ± 1.61 times
- Cough Latency ([1]; 30 mg/mL codeine phosphate): 158.30 ± 17.46 s
- Inhibition Rate of Cough ([1]; 30 mg/mL codeine phosphate): 57.30 ± 8.70 %
- Cough Frequency ([4]; 30 mg/mL codeine): 8.44 ± 0.71
- Cough Frequency Suppression Rate, Actual Value ([4]; 30 mg/mL codeine): 55.29 ± 3.86 %
- Cough Latency ([4]; 30 mg/mL codeine): 134.78 ± 9.72 s
